The record followed here is US9771361B2, “Inhibitors of influenza viruses replication” (priority 2013, dated 2017).

A word on the EC50: it is the concentration giving half of the maximal effect.

Test systems include A/WS/33; A/NWS/33; A/Puerto Rico/8/34; A/Weiss/43; A/Georgia/20/2006; A/St. Petersburg/8/2006; A/Virginia/01/2006; A/Port Chalmers/1/73; A/Wisconsin/67/2005; A/Nebraska/1/2006; A/Texas/12/2007; A/Uruguay/716/2007; A/California/07/2009; A/Mexico/4108/2009; A/Texas/48/2009.
Common to all, as to format: cell-based, influenza A virus
Holding throughout (conditions): read-out: Cell Protection Assay EC50 ± SD Comp (1)

Experiment [1] relates to A/California/07/2009 NYMC X-179A.

As for `O=C(O)[C@H]1C2CCC(CC2)C1Nc1nc(-c2c[nH]c3ncc(F)cc23)ncc1F` (stereo partly shown) [Compound (1)], the EC50 came to 3.2 ± 4.3 nM in the experiment with A/WS/33; 0.73 ± 0.1 nM with A/NWS/33; 3.2 ± 1.8 nM in the experiment on A/Puerto Rico/8/34; 0.31 ± 0.23 nM in the experiment with A/Weiss/43; 2.6 ± 3.8 nM in the experiment with A/Georgia/20/2006; 0.88 ± 0.69 nM in the experiment on A/St. Petersburg/8/2006. The EC50 with A/Virginia/01/2006 was 0.42 ± 0.24 nM; in experiment [1], 2.7 ± 1.8 nM; with A/Port Chalmers/1/73 it was 0.54 ± 0.11 nM; with A/Wisconsin/67/2005, 1.8 ± 0.24 nM; with A/Nebraska/1/2006, 2.1 ± 1.3 nM; with A/Texas/12/2007 it was 0.65 ± 0.22 nM. Besides, the EC50 with A/Uruguay/716/2007 came out at 3.5 ± 5.1 nM; with A/California/07/2009 it was 1.8 ± 1.6 nM; with A/Mexico/4108/2009, 2.7 ± 1.8 nM; with A/Texas/48/2009, 2.8 ± 3.2 nM.
